Data as given in patent US12077503B2, “Substituted cyclic amides and their use as herbicides” (FMC CORPORATION, priority 2015, dated 2024).
Where two headings read alike, the source gives them in different places.

Experiments:
Type in all cases: in vivo
Kochia (Kochia scoparia) [1] = assay: Test A preemergence; settings: Bassia scoparia, pre-emergence, 240 h; for pest or weed control at 125 g/ha: 125 g ai/ha; for pest or weed control at 500 g/ha: 500 g ai/ha
Method in brief: (§1)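 Greenhouse, ~10 d after spray; visual injury vs untreated controls, 0 = no effect, 100 = complete control. Preemergence: directed soil spray over planted seeds. Postemergence: plants 2–10 cm, 1–2 leaf stage. Loam/sand blend. Compound in non-phytotoxic solvent with surfactant.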

[2] = test system: barnyardgrass (Echinochloa crus-galli); assay: Test A preemergence; settings: Echinochloa crus-galli, pre-emergence, 240 h; for pest or weed control at 125 g/ha: 125 g ai/ha; for pest or weed control at 500 g/ha: 500 g ai/ha
Method in brief: as §1

[3] = test system: pigweed (Amaranthus retroflexus); assay: Test A preemergence; settings: Amaranthus retroflexus, pre-emergence, 240 h; for pest or weed control at 125 g/ha: 125 g ai/ha; for pest or weed control at 500 g/ha: 500 g ai/ha
[4] = test system: ragweed (common ragweed, Ambrosia elatior); assay: Test A preemergence; settings: Ambrosia artemisiifolia, pre-emergence, 240 h; for pest or weed control at 125 g/ha: 125 g ai/ha; for pest or weed control at 500 g/ha: 500 g ai/ha
Method in brief: as §1

[5] = test system: ryegrass, Italian (Italian ryegrass, Lolium multiflorum); assay: Test A preemergence; settings: Lolium multiflorum, pre-emergence, 240 h; for pest or weed control at 125 g/ha: 125 g ai/ha; for pest or weed control at 500 g/ha: 500 g ai/ha
Method in brief: as §1

[6] = test system: Galium (catchweed bedstraw, Galium aparine); assay: Test A postemergence; settings: Galium, post-emergence, 240 h, 125 g ai/ha
Method in brief: as §1

Kochia (Kochia scoparia) [7] = assay: Test A postemergence; settings: Bassia scoparia, post-emergence, 240 h, 125 g ai/ha
Method in brief: as §1

[8] = test system: barnyardgrass (Echinochloa crus-galli); assay: Test A postemergence; settings: Echinochloa crus-galli, post-emergence, 240 h, 125 g ai/ha
Method in brief: as §1

[9] = test system: blackgrass (Alopecurus myosuroides); assay: Test A postemergence; settings: Alopecurus myosuroides, post-emergence, 240 h, 125 g ai/ha
Method in brief: as §1

corn (Zea mays) = assay: Test A postemergence; settings: Zea mays, post-emergence, 240 h, 125 g ai/ha; for plant injury at 125 g/ha: postemergence, visual injury rating after approximately 10 d, read-out: Corn plant response rating (0 to 100 scale, 0 no effect, 100 complete control)
Method in brief: as §1

[10] = test system: giant foxtail (Setaria faberii); assay: Test A postemergence; settings: Setaria faberi, post-emergence, 240 h, 125 g ai/ha
Method in brief: as §1

[11] = test system: pigweed (Amaranthus retroflexus); assay: Test A postemergence; settings: Amaranthus retroflexus, post-emergence, 240 h, 125 g ai/ha
Method in brief: as §1

[12] = test system: ragweed (common ragweed, Ambrosia elatior); assay: Test A postemergence; settings: Ambrosia artemisiifolia, post-emergence, 240 h, 125 g ai/ha
Method in brief: as §1

[13] = test system: ryegrass, Italian (Italian ryegrass, Lolium multiflorum); assay: Test A postemergence; settings: Lolium multiflorum, post-emergence, 240 h, 125 g ai/ha
Method in brief: as §1

[14] = test system: wheat (Triticum aestivum); assay: Test A postemergence; settings: Triticum aestivum, post-emergence, 240 h, 125 g ai/ha
Method in brief: as §1

[15] = preemergence, 0 to 100 scale where 0 is no effect and 100 is complete control, read-out: Kochia plant response rating
[16] = Preemergence, visual injury vs untreated controls after approximately 10 d, read-out: Kochia plant response rating (0 to 100 scale where 0 is no effect and 100 is complete control)
[17] = preemergence, 0 to 100 scale where 0 is no effect and 100 is complete control, read-out: Barnyardgrass plant response rating
[18] = Preemergence, visual injury vs untreated controls after approximately 10 d, read-out: Barnyardgrass plant response rating (0 to 100 scale where 0 is no effect and 100 is complete control)
[19] = preemergence, 0 to 100 scale where 0 is no effect and 100 is complete control, read-out: Pigweed plant response rating
[20] = Preemergence, visual injury vs untreated controls after approximately 10 d, read-out: Pigweed plant response rating (0 to 100 scale where 0 is no effect and 100 is complete control)
[21] = preemergence, 0 to 100 scale where 0 is no effect and 100 is complete control, read-out: Ragweed plant response rating
[22] = Preemergence, visual injury vs untreated controls after approximately 10 d, read-out: Ragweed plant response rating (0 to 100 scale where 0 is no effect and 100 is complete control)
[23] = preemergence, 0 to 100 scale where 0 is no effect and 100 is complete control, read-out: Ryegrass, Italian plant response rating
[24] = Preemergence, visual injury vs untreated controls after approximately 10 d, read-out: Ryegrass, Italian plant response rating (0 to 100 scale where 0 is no effect and 100 is complete control)
[25] = postemergence, visual injury rating after approximately 10 d, read-out: Galium plant response rating (0 to 100 scale, 0 no effect, 100 complete control)
[26] = postemergence, visual injury rating after approximately 10 d, read-out: Kochia plant response rating (0 to 100 scale, 0 no effect, 100 complete control)
[27] = postemergence, visual injury rating after approximately 10 d, read-out: Barnyardgrass plant response rating (0 to 100 scale, 0 no effect, 100 complete control)
[28] = postemergence, visual injury rating after approximately 10 d, read-out: Blackgrass plant response rating (0 to 100 scale, 0 no effect, 100 complete control)
[29] = postemergence, visual injury rating after approximately 10 d, read-out: Foxtail, Giant plant response rating (0 to 100 scale, 0 no effect, 100 complete control)
[30] = postemergence, visual injury rating after approximately 10 d, read-out: Pigweed plant response rating (0 to 100 scale, 0 no effect, 100 complete control)
[31] = postemergence, visual injury rating after approximately 10 d, read-out: Ragweed plant response rating (0 to 100 scale, 0 no effect, 100 complete control)
[32] = postemergence, visual injury rating after approximately 10 d, read-out: Ryegrass, Italian plant response rating (0 to 100 scale, 0 no effect, 100 complete control)
[33] = postemergence, visual injury rating after approximately 10 d, read-out: Wheat plant response rating (0 to 100 scale, 0 no effect, 100 complete control)

| Compound | pest or weed control at 125 g/ha (Kochia (Kochia scoparia) [1]; [15]) [%] | pest or weed control at 500 g/ha (Kochia (Kochia scoparia) [1]; [16]) [%] | pest or weed control at 125 g/ha [2, 17] [%] | pest or weed control at 500 g/ha [2, 18] [%] | pest or weed control at 125 g/ha [3, 19] [%] | pest or weed control at 500 g/ha [3, 20] [%] | pest or weed control at 125 g/ha [4, 21] [%] | pest or weed control at 500 g/ha [4, 22] [%] | pest or weed control at 125 g/ha [5, 23] [%] | pest or weed control at 500 g/ha [5, 24] [%] | pest or weed control at 125 g/ha [6, 25] [%] | pest or weed control at 125 g/ha (Kochia (Kochia scoparia) [7]; [26]) [%] | pest or weed control at 125 g/ha [8, 27] [%] | pest or weed control at 125 g/ha [9, 28] [%] | plant injury at 125 g/ha (corn (Zea mays)) [%] | pest or weed control at 125 g/ha [10, 29] [%] | pest or weed control at 125 g/ha [11, 30] [%] | pest or weed control at 125 g/ha [12, 31] [%] | pest or weed control at 125 g/ha [13, 32] [%] | plant injury at 125 g/ha [14, 33] [%] | other results |
| --- | --- | --- | --- | --- | --- | --- | --- | --- | --- | --- | --- | --- | --- | --- | --- | --- | --- | --- | --- | --- | --- |
| COc1c(F)ccc([C@H]2CN(C)C(=O)[C@@H]2C(=O)Nc2ccccc2F)c1Cl [Compound 892] | 70 | 90 | 100 | 100 | 0 | 40 | 20 | 50 | 30 | 90 | 20 | 40 | 90 | 0 | 0 | 90 | 0 | 0 | 60 | 0 |  |
| CN1C[C@H](c2cc(F)cc(F)c2)[C@@H](C(=O)Nc2ccc(C(F)(F)F)cc2)C1=O [Compound 968] |  |  |  |  |  |  |  |  |  |  |  |  |  |  |  |  |  |  |  |  | pest or weed control at 125 g/ha (Kochia (Kochia scoparia) [1]; Preemergence, visual injury rating after approximately 10 d, read-out: Kochia plant response rating (0 to 100 scale, 0 is no effect, 100 is complete control)): 0%; pest or weed control at 500 g/ha (Kochia (Kochia scoparia) [1]; preemergence, visual injury rating about 10 d after treatment, 0 to 100 scale (0 no effect, 100 complete control), read-out: Kochia plant response rating): 0%; pest or weed control at 125 g/ha ([2]; Preemergence, visual injury rating after approximately 10 d, read-out: Barnyardgrass plant response rating (0 to 100 scale, 0 is no effect, 100 is complete control)): 20%; pest or weed control at 500 g/ha ([2]; preemergence, visual injury rating about 10 d after treatment, 0 to 100 scale (0 no effect, 100 complete control), read-out: Barnyardgrass plant response rating): 60%; pest or weed control at 125 g/ha ([3]; Preemergence, visual injury rating after approximately 10 d, read-out: Pigweed plant response rating (0 to 100 scale, 0 is no effect, 100 is complete control)): 0%; pest or weed control at 500 g/ha ([3]; preemergence, visual injury rating about 10 d after treatment, 0 to 100 scale (0 no effect, 100 complete control), read-out: Pigweed plant response rating): 0%; pest or weed control at 125 g/ha ([4]; Preemergence, visual injury rating after approximately 10 d, read-out: Ragweed plant response rating (0 to 100 scale, 0 is no effect, 100 is complete control)): 0%; pest or weed control at 500 g/ha ([4]; preemergence, visual injury rating about 10 d after treatment, 0 to 100 scale (0 no effect, 100 complete control), read-out: Ragweed plant response rating): 0%; pest or weed control at 125 g/ha ([5]; Preemergence, visual injury rating after approximately 10 d, read-out: Ryegrass, Italian plant response rating (0 to 100 scale, 0 is no effect, 100 is complete control)): 0%; pest or weed control at 500 g/ha ([5]; preemergence, visual injury rating about 10 d after treatment, 0 to 100 scale (0 no effect, 100 complete control), read-out: Ryegrass, Italian plant response rating): 0%; pest or weed control at 125 g/ha ([6]; Postemergence, visual injury after approximately 10 d, 0 to 100 scale where 0 is no effect and 100 is complete control, read-out: Plant response rating, Galium): 0%; pest or weed control at 125 g/ha (Kochia (Kochia scoparia) [7]; Postemergence, visual injury after approximately 10 d, 0 to 100 scale where 0 is no effect and 100 is complete control, read-out: Plant response rating, Kochia): 0%; pest or weed control at 125 g/ha ([8]; Postemergence, visual injury after approximately 10 d, 0 to 100 scale where 0 is no effect and 100 is complete control, read-out: Plant response rating, Barnyardgrass): 20%; pest or weed control at 125 g/ha ([9]; Postemergence, visual injury after approximately 10 d, 0 to 100 scale where 0 is no effect and 100 is complete control, read-out: Plant response rating, Blackgrass): 0%; Corn plant response rating (crop injury, 0 = no effect, 100 = complete kill) at 125 g/ha (corn (Zea mays); Postemergence, visual injury after approximately 10 d, 0 to 100 scale where 0 is no effect and 100 is complete control): 0%; pest or weed control at 125 g/ha ([10]; Postemergence, visual injury after approximately 10 d, 0 to 100 scale where 0 is no effect and 100 is complete control, read-out: Plant response rating, Foxtail, Giant): 0%; pest or weed control at 125 g/ha ([11]; Postemergence, visual injury after approximately 10 d, 0 to 100 scale where 0 is no effect and 100 is complete control, read-out: Plant response rating, Pigweed): 0%; pest or weed control at 125 g/ha ([12]; Postemergence, visual injury after approximately 10 d, 0 to 100 scale where 0 is no effect and 100 is complete control, read-out: Plant response rating, Ragweed): 0%; pest or weed control at 125 g/ha ([13]; Postemergence, visual injury after approximately 10 d, 0 to 100 scale where 0 is no effect and 100 is complete control, read-out: Plant response rating, Ryegrass, Italian): 0%; plant injury at 125 g/ha ([14]; Postemergence, visual injury after approximately 10 d, 0 to 100 scale where 0 is no effect and 100 is complete control, read-out: Plant response rating, Wheat): 0% |
| Cc1c(F)ccc([C@H]2CNC(=O)[C@@H]2C(=O)Nc2ccccc2C(F)(F)F)c1F [Compound 831] | 0 | 0 | 50 | 70 | 20 | 20 | 0 | 0 | 30 | 50 | 20 | 0 | 30 | 0 | 0 | 20 | 0 | 0 | 20 | 0 |  |
